As usually defined, the pEC50 is the EC50 on a negative log10 scale, so that one unit is a factor of ten. Read a high pEC50 as a small EC50.

pEC50: −log10 of the molar value.

T1 sequence (P43220 24-463): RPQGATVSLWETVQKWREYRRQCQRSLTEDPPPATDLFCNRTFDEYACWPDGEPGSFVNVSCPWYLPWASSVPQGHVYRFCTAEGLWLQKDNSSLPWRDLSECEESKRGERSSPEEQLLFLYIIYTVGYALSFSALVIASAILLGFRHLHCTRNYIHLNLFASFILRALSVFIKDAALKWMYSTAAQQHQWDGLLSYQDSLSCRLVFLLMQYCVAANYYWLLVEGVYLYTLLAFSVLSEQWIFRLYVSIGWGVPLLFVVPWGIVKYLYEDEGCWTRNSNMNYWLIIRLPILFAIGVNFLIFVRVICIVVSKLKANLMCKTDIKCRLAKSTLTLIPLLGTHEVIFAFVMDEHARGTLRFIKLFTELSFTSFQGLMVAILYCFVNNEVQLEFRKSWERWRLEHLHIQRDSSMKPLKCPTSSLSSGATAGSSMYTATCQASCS

This experiment has as its target T1, GLP-1R (Homo sapiens, UniProt P43220).
T1 construct: host or cells: CHO cells
Put plainly: GLP-1R activation cAMP assay (Assay 1 or Assay 2). In kind it is cell-based. The note with it: cAMP increase in CHO cells stably expressing GLP-1R; compounds run on one of the two cAMP assays. The method, boiled down: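 EC50 values come from a sigmoidal fit of HTRF-detected cAMP rise versus log agonist concentration. GLP-1R-expressing CHO cells, equilibrated 1 h at 37 °C in HBSS with HEPES and BSA, received a 10-point compound dose series for 30 min before detection.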
`Cc1ncc(C#Cc2ccc(COc3cccc(-c4cc(F)c(Cc5nc6ccc(C(=O)O)cc6n5C[C@@H]5CCO5)cc4F)n3)c(F)c2)n1C` [Example 149, (S)-2-(4-(6-((4-((1,2-dimethyl-1H-imidazol-5-yl)ethynyl)-2-fluorobenzyl)oxy)pyridin-2-yl)-2,5-difluorobenzyl)-1-(oxetan-2-ylmethyl)-1H-benzo[d]imidazole-6-carboxylic acid] gave a pEC50 of 9.54.

`CCOc1nnc(COc2nc(-c3cc(F)c(Cc4nc5ccc(C(=O)O)cc5n4CC4(CF)CC4)cc3F)ccc2F)s1` [Example 256, 2-(4-(6-((5-ethoxy-1,3,4-thiadiazol-2-yl)methoxy)-5-fluoropyridin-2-yl)-2,5-difluorobenzyl)-1-((1-(fluoromethyl)cyclopropyl)methyl)-1H-benzo[d]imidazole-6-carboxylic acid] gave a negative logarithm of the EC50 (pEC50) of 9.35.

In turn, `O=C(O)c1ccc2nc(Cc3cc(F)c(-c4cccc(OCc5ncc(C#Cc6cn[nH]c6)cc5F)n4)cc3F)n(C[C@@H]3CCO3)c2c1` [Example 286, (S)-2-(4-(6-((5-((1H-pyrazol-4-yl)ethynyl)-3-fluoropyridin-2-yl)methoxy)pyridin-2-yl)-2,5-difluorobenzyl)-1-(oxetan-2-ylmethyl)-1H-benzo[d]imidazole-6-carboxylic acid] showed a pEC50 of 10.38.

The compound `O=C(O)c1cc(F)c2nc(Cc3c(F)cc(-c4ccnc(OCc5nc(C(F)(F)F)cs5)n4)c(F)c3F)n(C[C@@H]3CCO3)c2c1` [Example 377, (S)-4-fluoro-1-(oxetan-2-ylmethyl)-2-(2,3,6-trifluoro-4-(2-((4-(trifluoromethyl)thiazol-2-yl)methoxy)pyrimidin-4-yl)benzyl)-1H-benzo[d]imidazole-6-carboxylic acid] had a negative logarithm of the EC50 (pEC50) of 9.32.

Compound `COc1ncc(C#Cc2ccc(COc3cccc(-c4cc(F)c(Cc5nc6ccc(C(=O)O)cc6n5C[C@@H]5CCO5)cc4F)n3)c(F)n2)s1` [Example 277, (S)-2-(2,5-difluoro-4-(6-((2-fluoro-6-((2-methoxythiazol-5-yl)ethynyl)pyridin-3-yl)methoxy)pyridin-2-yl)benzyl)-1-(oxetan-2-ylmethyl)-1H-benzo[d]imidazole-6-carboxylic acid] had a negative logarithm of the EC50 (pEC50) of 9.51.

For the compound `Cn1nc(COc2cccc(-c3cc(F)c(Cc4nc5ccc(C(=O)O)cc5n4C[C@@H]4CCO4)cc3F)n2)cc1C#N` [Example 207, (S)-2-(4-(6-((5-cyano-1-methyl-1H-pyrazol-3-yl)methoxy)pyridin-2-yl)-2,5-difluorobenzyl)-1-(oxetan-2-ylmethyl)-1H-benzo[d]imidazole-6-carboxylic acid], the pEC50 is 9.34.

Regarding `N#Cc1ccc(C#Cc2cnc(COc3cccc(-c4cc(F)c(Cc5nc6ccc(C(=O)O)cc6n5C[C@@H]5CCO5)cc4F)n3)s2)cc1` [Example 325, (S)-2-(4-(6-((5-((4-cyanophenyl)ethynyl)thiazol-2-yl)methoxy)pyridin-2-yl)-2,5-difluorobenzyl)-1-(oxetan-2-ylmethyl)-1H-benzo[d]imidazole-6-carboxylic acid], the negative logarithm of the EC50 (pEC50) was 9.24.

Take `O=C(O)c1ccc2nc(Cc3cc(F)c(-c4cccc(OCc5ccc(C#Cc6cn[nH]c6)nc5)n4)cc3F)n(C[C@@H]3CCO3)c2c1` [Example 438, (S)-2-(4-(6-((6-((1H-pyrazol-4-yl)ethynyl)pyridin-3-yl)methoxy)pyridin-2-yl)-2,5-difluorobenzyl)-1-(oxetan-2-ylmethyl)-1H-benzo[d]imidazole-6-carboxylic acid]: the negative logarithm of the EC50 (pEC50) was 9.47.

On to `CN(C)C(=O)c1ccc(COc2cccc(-c3cc(F)c(Cc4nc5ccc(C(=O)O)cc5n4C[C@@H]4CCO4)cc3F)n2)cn1` [Example 44, (S)-2-(4-(6-((6-(dimethylcarbamoyl)pyridin-3-yl)methoxy)pyridin-2-yl)-2,5-difluorobenzyl)-1-(oxetan-2-ylmethyl)-1H-benzo[d]imidazole-6-carboxylic acid], for which the pEC50 was 7.12.

`O=C(O)c1ccc2nc(Cc3cc(F)c(-c4cccc(OCc5cnc(C(=O)NCC(F)F)cc5Cl)n4)cc3F)n(C[C@@H]3CCO3)c2c1` [Example 192, (S)-2-(4-(6-((4-chloro-6-((2,2-difluoroethyl)carbamoyl)pyridin-3-yl)methoxy)pyridin-2-yl)-2,5-difluorobenzyl)-1-(oxetan-2-ylmethyl)-1H-benzo[d]imidazole-6-carboxylic acid] gave a negative-log EC50 (pEC50) of 9.49.

Compound `N#CC1(NC(=O)c2cc(Cl)c(COc3cccc(-c4cc(F)c(Cc5nc6ccc(C(=O)O)cc6n5C[C@@H]5CCO5)cc4F)n3)cn2)CC1` [Example 184, (S)-2-(4-(6-((4-chloro-6-((1-cyanocyclopropyl)carbamoyl)pyridin-3-yl)methoxy)pyridin-2-yl)-2,5-difluorobenzyl)-1-(oxetan-2-ylmethyl)-1H-benzo[d]imidazole-6-carboxylic acid] gave a negative-log EC50 (pEC50) of 9.92.

Compound `Cc1cc(Cc2nc3ccc(C(=O)O)cc3n2[C@@H]2COCC2(C)C)c(F)cc1-c1ccc(F)c(OCc2ncc(C(C)(F)F)s2)n1` [Example 337, (S)-2-(4-(6-((5-(1,1-difluoroethyl)thiazol-2-yl)methoxy)-5-fluoropyridin-2-yl)-2-fluoro-5-methylbenzyl)-1-(4,4-dimethyltetrahydrofuran-3-yl)-1H-benzo[d]imidazole-6-carboxylic acid] had a pEC50 of 8.92.

As for `COCCn1c(Cc2cc(F)c(-c3cccc(OCc4ccc(-c5cnn(C6CCNCC6)c5)nc4)n3)cc2F)nc2ccc(C(=O)O)cc21` [Example 229, 2-(2,5-difluoro-4-(6-((6-(1-(piperidin-4-yl)-1H-pyrazol-4-yl)pyridin-3-yl)methoxy)pyridin-2-yl)benzyl)-1-(2-methoxyethyl)-1H-benzo[d]imidazole-6-carboxylic acid], the negative-log EC50 (pEC50) is 7.75.

Regarding `C[C@H]1COC[C@H]1n1c(Cc2cc(F)c(-c3ccc(F)c(OCc4ncc(C(F)(F)F)s4)n3)cc2F)nc2ccc(C(=O)O)cc21` [Example 409, 2-(2,5-difluoro-4-(5-fluoro-6-((5-(trifluoromethyl)thiazol-2-yl)methoxy)pyridin-2-yl)benzyl)-1-((3S,4R)-4-methyltetrahydrofuran-3-yl)-1H-benzo[d]imidazole-6-carboxylic acid], the pEC50 is 9.16.

For `NC(=O)c1ccc(COc2nccc(-c3cc(F)c(Cc4nc5ccc(C(=O)O)cc5n4C[C@@H]4CCO4)cc3F)n2)c(OC(F)F)n1` [Example 223, (S)-2-(4-(2-((6-carbamoyl-2-(difluoromethoxy)pyridin-3-yl)methoxy)pyrimidin-4-yl)-2,5-difluorobenzyl)-1-(oxetan-2-ylmethyl)-1H-benzo[d]imidazole-6-carboxylic acid], the pEC50 was 9.29.

As to `CNC(=O)c1cc(Cl)c(COc2cccc(-c3cc(F)c(Cc4nc5ccc(C(=O)O)cc5n4CC4(CF)CC4)c(F)c3F)c2)cn1` [Example 451, 2-((3′-((4-chloro-6-(methylcarbamoyl)pyridin-3-yl)methoxy)-2,3,5-trifluoro-[1,1′-biphenyl]-4-yl)methyl)-1-((1-(fluoromethyl)cyclopropyl)methyl)-1H-benzo[d]imidazole-6-carboxylic acid], the negative-log EC50 (pEC50) was 9.21.

As for `O=C(O)c1ccc2nc(Cc3cc(F)c(-c4cccc(OCc5cnc(C(=O)NC6COC6)cc5F)n4)cc3F)n(C[C@@H]3CCO3)c2c1` [Example 247, (S)-2-(2,5-difluoro-4-(6-((4-fluoro-6-(oxetan-3-ylcarbamoyl)pyridin-3-yl)methoxy)pyridin-2-yl)benzyl)-1-(oxetan-2-ylmethyl)-1H-benzo[d]imidazole-6-carboxylic acid], the negative logarithm of the EC50 (pEC50) is 9.60.

`O=C(O)c1ccc2nc(Cc3cc(F)c(-c4cccc(OCc5cn6ccncc6n5)n4)cc3F)n(C[C@@H]3CCO3)c2c1` [Example 33, (S)-2-(2,5-difluoro-4-(6-(imidazo[1,2-a]pyrazin-2-ylmethoxy)pyridin-2-yl)benzyl)-1-(oxetan-2-ylmethyl)-1H-benzo[d]imidazole-6-carboxylic acid] gave a pEC50 of 8.76.

With `O=C(O)c1ccc2nc(Cc3cc(F)c(-c4cccc(OCc5ncc(-c6ccc(C(F)(F)F)cc6)s5)n4)cc3F)n(C[C@H]3CCO3)c2c1` [Example 382, (R)-2-(2,5-difluoro-4-(6-((5-(4-(trifluoromethyl)phenyl)thiazol-2-yl)methoxy)pyridin-2-yl)benzyl)-1-(oxetan-2-ylmethyl)-1H-benzo[d]imidazole-6-carboxylic acid], the pEC50 is 8.90.

In turn, `O=C(O)c1ccc2nc(Cc3cc(F)c(-c4cccc(OCc5ccc(-n6cc(C7CC7)nn6)nc5)n4)cc3F)n(C[C@@H]3CCO3)c2c1` [Example 212, (S)-2-(4-(6-((6-(4-cyclopropyl-1H-1,2,3-triazol-1-yl)pyridin-3-yl)methoxy)pyridin-2-yl)-2,5-difluorobenzyl)-1-(oxetan-2-ylmethyl)-1H-benzo[d]imidazole-6-carboxylic acid] had a negative-log EC50 (pEC50) of 10.00.

Turning to `Cn1cc(C#Cc2ccc(COc3cccc(-c4cc(F)c(Cc5nc6ccc(C(=O)O)cc6n5C[C@@H]5CCO5)cc4F)n3)c(F)c2)nn1` [Example 301, (S)-2-(2,5-difluoro-4-(6-((2-fluoro-4-((1-methyl-1H-1,2,3-triazol-4-yl)ethynyl)benzyl)oxy)pyridin-2-yl)benzyl)-1-(oxetan-2-ylmethyl)-1H-benzo[d]imidazole-6-carboxylic acid], the pEC50 is 9.47.

`O=C(O)c1cc(F)c2nc(Cc3c(F)cc(-c4cccc(OCc5ncc(C(F)(F)F)s5)n4)c(F)c3F)n(C[C@@H]3CCO3)c2c1` [Example 449, (S)-4-fluoro-1-(oxetan-2-ylmethyl)-2-(2,3,6-trifluoro-4-(6-((5-(trifluoromethyl)thiazol-2-yl)methoxy)pyridin-2-yl)benzyl)-1H-benzo[d]imidazole-6-carboxylic acid] showed a negative-log EC50 (pEC50) of 10.09.

Regarding `O=C(O)c1ccc2nc(Cc3cc(F)c(-c4cccc(OCc5ccc(-c6cnn(C7COC7)c6)cc5F)n4)cc3F)n(C[C@@H]3CCO3)c2c1` [Example 164, (S)-2-(2,5-difluoro-4-(6-((2-fluoro-4-(1-(oxetan-3-yl)-1H-pyrazol-4-yl)benzyl)oxy)pyridin-2-yl)benzyl)-1-(oxetan-2-ylmethyl)-1H-benzo[d]imidazole-6-carboxylic acid], the pEC50 is 10.00.

The record behind these values is patent US20250312352A1, “GLP-1R MODULATING COMPOUNDS” (Gilead Sciences, Inc., priority 2021, published 2025).
